# Experimental data as given in patent US11952328B2, “Selective ship inhibitors for treating disease” (THE RESEARCH FOUNDATION FOR THE STATE UNIVERSITY OF NEW YORK, priority 2018, dated 2024).
# System: CT26 colon carcinoma cells
# Experiment: Subcutaneous CT26 colon carcinoma model
# Format: in vivo, BALB/C mice
# Experimental: FIG. 7A and FIG. 7B show CT26 (FIG. 7A) and MC-38 (FIG. 7B) viability following in vitro treatment with 3AC for 24 h at indicated doses. Relative viability is expressed as frequency compared to solvent only treated cells. Kill curve summarizes pooled data from three independent experiments using six replicate wells/concentration with mean±SEM indicated. BALB/C mice were challenged with subcutaneous injection of CT26 colon carcinoma cells in the right flank. Mice were treated with either 2 consecutive days of 3AC or vehicle control each week as in FIG. 4A. Tumor size at […] 28 days (FIG. 7C), and tumor weight on day 28 determined after dissection of tumor (FIG. 7E). […] C57BL/6 mice were challenged with subcutaneous injection of MC-38 colon carcinoma cells in the right flank. Mice were treated with either 2 consecutive days of SHIP inhibitor or vehicle control each week as in FIG. 4A. Tumor size at 14, 21 and 25 days (FIG. 7D), and tumor weight (FIG. 7F) on day 25 were determined after dissection of tumor. […] FIG. 7A (n=18 per group. One-way ANOVA with Dunnett's multiple comparisons. 0 μM vs. 20 μM Adjusted p value=0.0463. All other concentrations of SHIP inhibitor compared with solvent only N.S.). FIG. 7B (n=18 per group. One-way ANOVA with Dunnett's multiple comparisons. All concentrations of SHIP inhibitor compared with solvent only N.S.). FIGS. 7C-7F graphs represent data from one of two independent experiments. FIG. 7C (n=10. Day 14 p<0.0001, Unpaired t test with Welch's correction. Day 21 p<0.0001, two-tailed student's t-test. Day 28 p<0.0001, two-tailed Student's t-test). FIG. 7E (n=10. P<0.0001, two-tailed Student's t-test) FIG. 7D (n=10. Day 14 p=0.0005, two-tailed student's t-test. Day 21 p=0.0009, two-tailed Student's t-test. Day 25 p=0.0009, two-tailed student's t-test). FIG. 7F (n=10. P=0.0067, two-tailed student's t-test).
# Colorectal cancer is the second leading cause of cancer mortality in the United States (Siegel, R. L. et al., Colorectal cancer statistics, 2017. CA Cancer J Clin. (2017)). […]
smiles,measurement,setting,value
"CC(C)CCC[C@@H](C)[C@H]1CC[C@H]2[C@@H]3CCC4C[C@H](N)CC[C@]4(C)[C@H]3CC[C@]12C (stereo partly drawn) [Compound 3AC, 3-α-aminocholestane]",tumor weight,"day 28, vs vehicle",significant reduction
same,tumor size,"two consecutive days each week, days 14, 21, 28, vs vehicle",significant reduction
same,histological analysis (H&E) of tumors,vs vehicle,prominent zones of tumor cell death
